Experiments:
AMARE [1] = assay: greenhouse post-emergence herbicidal test; type: in vivo, Amaranthus retroflexus; conditions: post-emergence method, application rate 1,000 kg/ha; scale from 0 to 100
From the text: (§1) The culture containers used were plastic flowerpots containing loamy sand with approximately 3.0% of humus as the substrate. The seeds of the test plants were sown separately for each species.
(§2) For the pre-emergence treatment, the active ingredients, which had been suspended or emulsified in water, were applied directly after sowing by means of finely distributing nozzles. The containers were irrigated gently to promote germination and growth and subsequently covered with transparent plastic hoods until the test plants had rooted. This cover caused uniform germination of the test plants, unless this had been impaired by the active ingredients. For the post-emergence treatment, the test plants were first grown to a height of 3 to 15 cm, depending on the plant habit, and only then treated with the active ingredients which had been suspended or emulsified in water. For this purpose, the test plants were either sown directly and grown in the same containers, or they were first grown separately as seedlings and transplanted into the test containers a few days prior to treatment.
(§3) Depending on the species, the test plants were kept at 10-25° C. or 20-35° C., respectively. The test period extended over 2 to 4 weeks. During this time, the test plants were tended, and their response to the individual treatments was evaluated.
(§4) Evaluation was carried out using a scale from 0 to 100. […]

AVEFA = assay: greenhouse post-emergence herbicidal test; type: in vivo, Avena fatua; conditions: post-emergence method, application rate 1,000 kg/ha; scale from 0 to 100
From the text: as §1, §2, §3, §4

APESV = assay: greenhouse pre-emergence herbicidal test; type: in vivo, Apera spica-venti; conditions: pre-emergence method, application rate 1,000 kg/ha; scale from 0 to 100
From the text: as §1, §2, §3, §4

ECHCG = assay: greenhouse pre-emergence herbicidal test; type: in vivo, Echinocloa crus-galli; conditions: pre-emergence method, application rate 1,000 kg/ha; scale from 0 to 100
From the text: as §1, §2, §3, §4

AMARE [2] = assay: greenhouse pre-emergence herbicidal test; type: in vivo, Amaranthus retroflexus; conditions: pre-emergence method, application rate 1,000 kg/ha; scale from 0 to 100
From the text: as §1, §2, §3, §4

Compound: CCOC(=O)C1CC(c2cc(F)cc(F)c2)=CO1 (stereo not drawn) [compound 11, ethyl 4-(3,5-difluorophenyl)-2,3-dihydrofuran-2-carboxylate]
- herbicidal activity against AMARE (AMARE [1]): very good herbicidal activity (a very good herbicidal activity is given at values of 90 to 100)

Compound: O=C(O)C1(C(F)(F)F)CC(c2cc(F)cc(F)c2)=CO1 (stereo not drawn) [compound 17, 4-(3,5-difluorophenyl)-2-(trifluoromethyl)-3H-furan-2-carboxylic acid]
- herbicidal activity against AVEFA (AVEFA): very good herbicidal activity (a very good herbicidal activity is given at values of 90 to 100)

Compound: ethyl 4-(3,5-dichlorophenyl)-2-methyl-3H-furan-2-carboxylic acid [compound 14]
- herbicidal activity against APESV (APESV): very good herbicidal activity (a very good herbicidal activity is given at values of 90 to 100)
- herbicidal activity against ECHCG (ECHCG): very good herbicidal activity (a very good herbicidal activity is given at values of 90 to 100)

Compound: ethyl 4-(3,5-difluorophenyl)-2-methyl-3H-furan-2-carboxylic acid [compound 12]
- herbicidal activity against AMARE (AMARE [2]): good herbicidal activity (A good herbicidal activity is given at values of 65 to 90)
- herbicidal activity against ECHCG (ECHCG): good herbicidal activity (A good herbicidal activity is given at values of 65 to 90)
